Test system: VEGF (Vascular Endothelial Growth Factor)
Test: Expression level of VEGF in sulindac-treated cells (RT-PCR)
Type: cell-based, rat
Details: RGM-1 cells, revaprazan 25 uM (rebamipide 50 uM) 16 hours, then sulindac 100 uM 8 hours, FIG. 6
Experimental: In order to evaluate cytoprotective effect of revaprazan, 100 μM of sulindac belonging to NSAIDs was added to the rat cells, and the expression levels of pro-angiogenic growth factors, VEGF (Vascular Endothelial Growth Factor), interleukin-8 (IL-8), and COX-2 (cyclooxygenase-2) were measured. Rebamipide (50 μM), known to have cytoprotective properties, was used as a control drug and revaprazan (25 μM) was used as a test drug. The rat gastric mucosal (RGM-1, RIKEN cell bank, Japan) cells were seeded in culture dishes at 2×10^6 cells/100 mm^2 and cultured in RPMI 1640 (Gibco BRL, Grand Island, N.Y., U.S.A.), supplemented with 100 units/mL penicillin, 100 ug/mL streptomycin, and 10% FBS (Fetal Bovine Serum). […] The culture media were removed and the cells were washed three times with PBS (137 mM NaCl, 2.7 mM KCl, 10 mM Na2HPO4, and 2 mM KH2PO4). A solution of sulindac in DMSO was added to the cells to reach a final concentration of 100 uM and the cells were cultured at 37° C. for 8 hours. The cultured cells were collected by centrifugation at 23° C. at 3000 rpm for 3 minutes, and the total RNA was isolated from the cells using the TRIzol reagent (Life technologies, Milan, Italy). Sterilized RNase-free water was added to 2 μg of the total RNA and 1 μl of 10 pmol/λ oligo dT to obtain reaction solutions with a volume of 34 μl. […]

## Cc1nc(Nc2ccc(F)cc2)nc(N2CCc3ccccc3C2C)c1C (stereo not shown) [revaprazan, 5,6-dimethyl-2-(4-fluorophenylamino)-4-(1-methyl-1,2,3,4-tetrahydroisoquinolin-2-yl)pyrimidine]
  expression level of VEGF versus rebamipide-sulindac treatment group: much higher

Reference: US7776873B2, “Method for treating damage to gastric mucosa” (Yuhan Corporation, priority 2005, dated 2010)
